Experimental data: PMC5920042, “KH176 Safeguards Mitochondrial Diseased Cells from Redox Stress-Induced Cell Death by Interacting with the Thioredoxin System/Peroxiredoxin Enzyme Machinery” (Scientific Reports, 2018)
“Also recorded” adds a separate entry of the source.

Assays:
[1] = system: C1 control cell line; assay: Redox Stress Survival assay (BSO sensitivity); format: cell-based, human; conditions: C1, 24 h
Experimental: (§1) Cells were seeded at a density of 4 × 10^3 cells/well into 96-wells black plates and incubated for 24 h. To induce redox stress, semi-logarithmic dilutions of buthionine sulphoximine (BSO, #B2515, Sigma Aldrich) up to 100 µM were added to the cells in culture medium and incubated for 24 h. Cell viability was assessed by quantification of cellular conversion of Calcein AM into fluorescent Calcein. Briefly, after having discarded the BSO containing medium, cells were washed once with M199 without phenol red and loaded with 2 µM Calcein AM (#65-0853-39, Affimetrix eBioscience) in M199 without phenol red for 25 min. At the end of the incubation period, the excess of the dye was washed with M199 without phenol red and Calcein fluorescence was measured with a scanning microplate reader (BMG FLUOstar Omega; Ex. 480 nm, Em. 520 nm). For compound screening and target identification measurements cells were treated with 200 µM BSO alone or in co-incubation with semi-logarithmic dilutions of the test compound. Additionally, where indicated, increasing doses of Auranofin (AFN, #BML-EI206-0100, Enzo) or Aurothioglucose (ATG, #A0606, Sigma Aldrich) were co-incubated with BSO and the test compound. In all cases, cell viability was assessed 24 h after the treatment.

[2] = system: P6 cell line (Complex I, NDUFS8); assay: Redox Stress Survival assay (BSO sensitivity); format: cell-based, human; conditions: P6, 24 h
Experimental: as §1

[3] = system: P2 cell line (Complex I, NDUFS2); assay: Redox Stress Survival assay (BSO sensitivity); format: cell-based, human; conditions: P2, 24 h
Experimental: as §1

[4] = system: C3 control cell line; assay: Redox Stress Survival assay (BSO sensitivity); format: cell-based, human; conditions: C3, 24 h
Experimental: as §1

[5] = system: C2 control cell line; assay: Redox Stress Survival assay (BSO sensitivity); format: cell-based, human; conditions: C2, 24 h
Experimental: as §1

[6] = system: P4 cell line; assay: Redox Stress Survival assay (BSO-induced cell death, Calcein AM viability); format: cell-based, human; conditions: P4 cells
Experimental: as §1

[7] = system: P4 cell line; assay: Cellular ROS assay (DCFH-DA); format: cell-based, human
Experimental: The cells were then treated for 72 h (or shorter as indicated) with culture medium containing semi-logarithmic dilutions of the test compound. Alternatively, 3 × 10^3 cells/well were seeded when cells were treated for 24 h only. At the end of the incubation period, cells were loaded with 40 µM DCFH-DA (#D6883, Sigma-Aldrich). in M199 without phenol red for 30 min. The excess of the dye was washed with ice-cold M199 without phenol red and the cells were lysed with 100 µl/well of ice-cold 0.2% Triton X-100 in M199 without phenol red after 10 min incubation in ice. Cellular debris was spun down by centrifugation at 2600 g, 5 min, +4 °C and 90 µl/well of cell lysate were transferred to a black 96-wells plate and DCF fluorescence was measured on a scanning microplate reader (BMG FLUOstar Omega; Ex. 480 nm, Em. 520 nm).

[8] = system: P4 cell line; assay: Radical-Scavenging Capacity assay (CM-H2DCFDA, H2O2 or KO2); format: cell-based, human; conditions: P4 cells, 100 µM H2O2 or 1 mM KO2 (text: KOH), 3 µM compound
Experimental: Cells were seeded at a density of 4 × 10^3 cells/well into 96-wells black plates. After 24 h the cells were loaded with 5 µM CM-H2DCFDA in M199 without phenol red for 20 min. The dye excess was washed with M199 without phenol red and immediately after, cells were treated acutely with different concentrations of the test compounds in M199 without phenol red. To generate radicals, 100 µM H2O2 or 1 mM KO2 were injected to the compound-treated cells and CM-DCF fluorescence was measured every 2 min for 70 cycles on a scanning microplate reader (BMG FLUOstar Omega; Ex. 480 nm, Em. 520 nm). The area under the generated curves was calculated using the Origin 6.1 software (OriginLab).

[9] = system: primary human skin fibroblasts; assay: CumOOH induced lipid peroxidation (bodipy 581/591 C11); format: cell-based; conditions: 30 µM cumOOH, bodipy 581/591 C11
Experimental: The cells were seeded at a density of 3 × 10^3 cells/well into 96-wells black plates. After 24 h, the cells were coincubated with 500 nM bodipy 581/591 C11 (#D3861, Thermo Fisher) and different amounts of KH compound in M199 without phenol red. This medium was used in all subsequent washes and incubations. After 30 min. incubation the cells were washed twice and subsequently incubated with 30 μM cumene hydroperoxide (cumOOH). For background subtractions cells with the dye but without cumOOH were used. After 30 minutes incubation and two washes oxidized bodipy 581/591 C11 was quantified on an automated bioimager (BD Pathway 855), by using a 20x objective and Ex. 488/10 nm, Em. FURA/FITC. Total cellular fluorescence per well was normalized on the number of cellular pixels/well and normalized on the incubation with probe and cumOOH but without compound (vehicle set as 100%). Experiments were performed at least three times with 3 wells per experiment.

In the case of `CCCCS(=N)(=O)CCC(N)C(=O)O` (centres unmarked) [BSO, Buthionine sulphoximine], the “IC50 BSO” value [1] is reported as “n.s”, the “IC50 BSO” value [2] is reported as “n.s” and the “IC50 BSO” value [3] is reported as “n.s”. For the same compound, the “IC50 BSO” value [4] was “n.s”, the “IC50 BSO” value [5] was “n.s” and the IC50 ([6]; 24 h BSO up to 100 µM) was 3.8 µM.

In the case of `COc1c(C)c(C)c2c(c1C)CC[C@@](C)(C(=O)N[C@@H]1CCCNC1)O2` [KH176i], the “Activity in the ROS assay” value ([7]; P4 cells, 24 h compound treatment) is reported as “inactive”, the “Rescue of cell viability from BSO-induced death” value ([6]; 200 µM BSO, 24 h) is reported as “unable to rescue cell viability” and the “Reduction of H2O2-induced radicals and O2.- (CM-H2DCFDA oxidation)” value [8] is reported as “not”. The “Effect on CumOOH induced lipid peroxidation” value [9] was “no effect; also recorded: no activity”.

`Cc1c(C)c2c(c(C)c1O)CCC(C)(C(=O)O)O2` (centres unmarked) [Trolox, reference compound] showed an IC50 ([7]; Homo sapiens, P4 cells, 72 h treatment) of 187 µM and an EC50 ([6]; Homo sapiens, 200 µM BSO, 24 h) of 38 µM.

For auranofin [AFN, reference compound], the “Effect of thioredoxin reductase inhibition on ROS reduction by KH176m” value ([7]; 24 hours, 100 nM AFN with 1 µM KH176m, DCFH-DA) was “did not affect the capacity of KH176m to reduce the DCFH-DA signal” and the “Effect of thioredoxin reductase inhibition on rescue by KH176(m)” value ([6]; 200 µM BSO, 100 nM AFN) was “decrease of the capacity of KH176(m) to rescue the cells”.
